Measurements reported in paper PMC8490515, “Neuromedin B receptor stimulation of Cav3.2 T-type Ca^2+ channels in primary sensory neurons mediates peripheral pain hypersensitivity” (Theranostics, 2021).
“Also recorded” adds a separate entry of the source. Values belong to the compound of their own block, whether it stands above or below them.

What was measured:
[1] = molecular target: Human neuromedin B receptor expressed in HEK293 cells (human) (UniProt P28336)
[2] = tested on: Nmb-induced mechanical hypersensitivity in mice; assay: Nmb-induced mechanical hypersensitivity, effect of pretreatment (Figure 7C); format: in vivo, mouse; conditions: intra-TG TTA-P2 1 nmol prior to 1 nmol Nmb; 1 h; n = 8 - 10
Procedure: Mice were housed on a 12 h light/dark cycle, maintained in a humidity- and temperature-controlled room with water available ad libitum and were acclimated to the experimenter for 2 d before the first behavioural observations. Experimenters were blinded to the treatment or genotypes of the mice. As described previously, [31], an Orofacial Stimulation Test (Ugo Basile, Italy) was used for the measurement of hypersensitivity to the mechanical stimulation of the trigeminal area. Briefly, the mice initially underwent one week of adaptation trainings after a 12 h fasting food period. Each mouse was then placed in a cage in which there was an Orofacial Stimulation Test system. […] The contact number and total duration of time the mouse spent acquiring the reward were analyzed with the ORO software.
For experiments that several time points are needed to be checked in 24 h, von Frey test was used, as orofacial stimulation test can be checked only once a day, [32]. […] Mechanical hypersensitivity was assessed as described in previous studies, [33]. In brief, the threshold was assessed with a set of von Frey hairs (0.02-2.56 g, Stoelting) applied to the whisker pad in an ascending series of trials, with three separate von Frey stimulations applied per series. The threshold was determined when mice moved their heads away briskly and strongly from at least one of the three stimuli. […]

[3] = tested on: CFA-induced mechanical allodynia in mice; assay: CFA-induced inflammatory pain, mechanical allodynia; format: in vivo, mouse; conditions: rofecoxib 10 mg/kg (legend: 1 mg/kg, subcutaneous); 1 h; 2 d after CFA; n = 7 - 9
Procedure: For experiments that several time points are needed to be checked in 24 h, von Frey test was used, as orofacial stimulation test can be checked only once a day, [32]. For the von Frey test, the mice were placed in metal mesh boxes and allowed 30 min for habituation before examination. Mechanical hypersensitivity was assessed as described in previous studies, [33]. In brief, the threshold was assessed with a set of von Frey hairs (0.02-2.56 g, Stoelting) applied to the whisker pad in an ascending series of trials, with three separate von Frey stimulations applied per series. The threshold was determined when mice moved their heads away briskly and strongly from at least one of the three stimuli. Dixon's up-down method was used to determine the 50% probability of escape threshold. For thermal test, a heat stimulus was applied to the maxillary whisker pad skin by radiant heat (IITC Life Science). Heat sensitivity was expressed as head-withdrawal latency (HWL). The radiant heat intensity was adjusted so that basal HWL is between 10-15 s, with a cut-off of 18 s to prevent tissue damage. Chronic inflammatory pain was induced by subcutaneous injection of 20 μL of complete Freund's adjuvant (CFA) into the left side of the buccal pad. […]

Sequence of Human neuromedin B receptor expressed in HEK293 cells (human) (P28336 whole entry): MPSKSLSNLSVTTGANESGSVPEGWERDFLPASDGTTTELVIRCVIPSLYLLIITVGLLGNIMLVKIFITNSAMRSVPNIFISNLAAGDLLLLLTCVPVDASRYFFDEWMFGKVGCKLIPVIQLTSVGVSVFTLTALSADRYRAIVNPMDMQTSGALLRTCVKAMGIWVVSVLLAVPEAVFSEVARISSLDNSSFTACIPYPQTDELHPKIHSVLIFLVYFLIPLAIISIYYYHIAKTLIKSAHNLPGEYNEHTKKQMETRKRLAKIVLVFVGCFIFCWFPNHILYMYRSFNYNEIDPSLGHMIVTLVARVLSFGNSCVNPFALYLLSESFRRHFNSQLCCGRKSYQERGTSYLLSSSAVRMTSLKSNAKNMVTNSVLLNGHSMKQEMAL

- increase of Cav3.2 channel currents in HEK293 cells co-expressing human NmbR and Cav3.2, whole-cell patch clamp, dose-response of Nmb, EC50 [1]: 0.0476 µM
Compound: Neuromedin B (peptide)

Compound: CC1(C)C[C@@H](CN2CCC(F)(CNC(=O)c3cc(Cl)cc(Cl)c3)CC2)CCO1 [TTA-P2]
- effect on Nmb-induced mechanical hypersensitivity [2]: significantly attenuated mechanical hypersensitivity

Compound: CS(=O)(=O)c1ccc(C2=C(c3ccccc3)C(=O)OC2)cc1 [rofecoxib]
- CFA-induced mechanical allodynia [3]: reversed; also recorded: reduced the mechanical allodynia
